Laboratory results: ChEMBL document CHEMBL4043207, “Discovery of a novel, CNS penetrant M4 PAM chemotype based on a 6-fluoro-4-(piperidin-1-yl)quinoline-3-carbonitrile core” (Bioorg Med Chem Lett, 2017)

How the values were obtained:
[1] = target: T1, Muscarinic acetylcholine receptor M4 (Homo sapiens, UniProt P08173); assay: Positive allosteric modulation of human M4 receptor expressed in CHO cells co-expressing Gqi5 assessed as increase in acetylcholine-induced calcium mobilization; format: functional, cell-based
T1 sequence (P08173 whole entry): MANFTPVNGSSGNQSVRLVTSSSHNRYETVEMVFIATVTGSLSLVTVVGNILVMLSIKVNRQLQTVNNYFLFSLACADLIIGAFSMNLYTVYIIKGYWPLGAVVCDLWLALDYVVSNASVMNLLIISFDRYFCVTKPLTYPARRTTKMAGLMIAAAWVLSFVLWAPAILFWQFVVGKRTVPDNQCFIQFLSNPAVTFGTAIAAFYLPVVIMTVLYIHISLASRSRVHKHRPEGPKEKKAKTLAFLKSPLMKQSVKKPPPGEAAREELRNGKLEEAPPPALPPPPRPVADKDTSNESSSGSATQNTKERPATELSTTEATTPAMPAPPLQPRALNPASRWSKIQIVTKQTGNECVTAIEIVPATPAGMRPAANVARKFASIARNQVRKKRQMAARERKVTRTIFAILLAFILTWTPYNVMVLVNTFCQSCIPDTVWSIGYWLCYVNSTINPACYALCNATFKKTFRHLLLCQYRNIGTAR

[2] = target: T2, Muscarinic acetylcholine receptor M4 (Homo sapiens) (UniProt P08173); assay: Positive allosteric modulation of human M4 receptor expressed in CHO cells co-expressing Gqi5 assessed as increase in acetylcholine-induced calcium mobilization relative to acetylcholine; format: functional, cell-based
T2 sequence (whole entry): T1 sequence (P08173 whole entry)

[3] = Fraction unbound in rat brain; format: ADME, tissue-based
[4] = Ratio of unbound concentration in brain to plasma in Sprague-Dawley rat at 0.1 to 0.2 mg/kg, iv administered as cassette dose after 25 mins; format: ADME, organism-based; conditions: brain and plasma, read-out: K(p,uu,brain)
[5] = Clearance in human hepatocytes; format: ADME, cell-based, Hepatocyte
[6] = (§1) Fraction unbound in human plasma; format: ADME, cell-free
[7] = Fraction unbound in rat plasma; format: ADME, cell-free
[8] = Brain to plasma permeability coefficient, Kp of the compound in Sprague-Dawley rat at 0.1 to 0.2 mg/kg, iv administered as cassette dose after 25 mins; format: ADME, organism-based; conditions: brain and plasma
[9] = Clearance in rat hepatocytes; format: ADME, cell-based, Hepatocyte
[10] = Ratio of unbound concentration in brain to plasma in rat; format: ADME
[11] = Brain to plasma permeability coefficient, Kp of the compound in rat; format: ADME
[12] = tested on: MDR1 (P-gp); assay: Efflux ratio of apparent permeability in MDCK-MDR1 cells; format: ADME, cell-based, Canis lupus familiaris; conditions: dog
[13] = tested on: Plasma; assay: as §1; format: ADME, cell-free
[14] = target: T3, Muscarinic acetylcholine receptor M4 (Rattus norvegicus, UniProt P08485); assay: Positive allosteric modulation of rat M4 receptor assessed as increase in acetylcholine-induced response
T3 sequence (P08485 whole entry): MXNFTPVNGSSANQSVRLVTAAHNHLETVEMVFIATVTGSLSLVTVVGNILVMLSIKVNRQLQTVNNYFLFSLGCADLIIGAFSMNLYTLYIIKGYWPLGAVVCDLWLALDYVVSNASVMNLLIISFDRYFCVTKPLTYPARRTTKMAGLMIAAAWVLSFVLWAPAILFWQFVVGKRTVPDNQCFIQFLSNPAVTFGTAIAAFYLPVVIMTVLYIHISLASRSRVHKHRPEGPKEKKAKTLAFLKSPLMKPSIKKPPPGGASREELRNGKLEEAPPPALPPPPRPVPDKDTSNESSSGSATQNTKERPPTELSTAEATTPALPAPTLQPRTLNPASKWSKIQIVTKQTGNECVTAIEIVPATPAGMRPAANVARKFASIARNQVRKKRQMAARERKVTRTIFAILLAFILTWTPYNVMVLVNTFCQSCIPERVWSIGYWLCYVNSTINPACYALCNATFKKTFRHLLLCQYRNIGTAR

[15] = target: T4, Muscarinic acetylcholine receptor M4 (Rattus norvegicus) (UniProt P08485); assay: Positive allosteric modulation of rat M4 receptor assessed as increase in acetylcholine-induced response relative to acetylcholine
T4 sequence (whole entry): T3 sequence (P08485 whole entry)

[16] = Clearance in dog plasma at 0.2 mg/kg administered as iv cassette dose; format: ADME, organism-based, Canis lupus familiaris
[17] = Half life in rat plasma at 0.2 mg/kg administered as iv cassette dose; format: ADME, organism-based
[18] = Half life in dog plasma at 0.2 mg/kg administered as iv cassette dose; format: ADME, organism-based, Canis lupus familiaris
[19] = Clearance in rat plasma at 0.2 mg/kg administered as iv cassette dose; format: ADME, organism-based
[20] = Volume of distribution at steady state in dog plasma at 0.2 mg/kg administered as iv cassette dose; format: ADME, organism-based, Canis lupus familiaris; conditions: read-out: Vdss
[21] = tested on: Plasma; assay: Fraction unbound in dog plasma at 0.2 mg/kg administered as iv casette dose; format: ADME, organism-based, Canis lupus familiaris; conditions: in vivo
[22] = Apparent permeability in MDCK-MDR1 cells; format: ADME, cell-based, Canis lupus familiaris; conditions: dog
[23] = Volume of distribution at steady state in rat plasma at 0.2 mg/kg administered as iv cassette dose; format: ADME, organism-based; conditions: read-out: Vdss

Compound	EC50 ([1]; read-out: EC50) [nM]	Emax [2] [%]	EC50 ([1]; read-out: pEC50 (converted)) [nM]	also measured
N#Cc1cnc2ccc(F)cc2c1N1CCC(Oc2cccnc2)CC1	1300	80		
N#Cc1cnc2ccc(F)cc2c1N1CCC(Oc2ccc(F)nc2)CC1	512	83	490	
Cc1ccc(OC2CCN(c3c(C#N)cnc4ccc(F)cc34)CC2)c(C)n1	> 10000		> 31600	
Cc1ccc2ncc(C#N)c(N3CCC(Oc4ccc(C)nc4)CC3)c2c1	3020	67	2950	
Cc1cc(C)c(OC2CCN(c3c(C#N)cnc4ccc(F)cc34)CC2)cn1	> 10000		> 31600	
N#Cc1cnc2ccc(F)cc2c1N1CCC(C(=O)Nc2ccc(F)c(F)c2)CC1	565	52		
N#Cc1cnc2ccc(F)cc2c1N1CCC(C(=O)Nc2ccncc2)CC1	147	73		
Cc1ccc(OC2CCN(c3c(C#N)cnc4c(C)cc(F)cc34)CC2)cn1	2070	82		
COc1ccc2c(c1)CCN(C(=O)C1CCN(c3c(C#N)cnc4ccc(F)cc34)CC1)C2	648	76		fraction unbound [3]: 0.007; Kp uu at 25 min [4]: 0.68; CLhep predicted [5]: 20 mL/min/kg; fraction unbound [6]: 0.011; fraction unbound [7]: 0.013; Kp at 25 min [8]: 1.26; CLhep predicted [9]: 64 mL/min/kg
N#Cc1cnc2ccc(F)cc2c1N1CCC(C(=O)Nc2ccccn2)CC1	912	44	871	
COc1ccc(CNC(=O)C2CCN(c3c(C#N)cnc4ccc(F)cc34)CC2)cc1F	1090	65	1050	CLhep predicted [5]: 19 mL/min/kg; K(p,uu,brain) [10]: 0.26; Kp [11]: 0.29; CLhep predicted [9]: 61 mL/min/kg
Cc1ccc(OC2CCN(c3c(C#N)cnc4cc(F)c(F)cc34)CC2)cn1	571	92	562	
COc1ccccc1CNC(=O)C1CCN(c2c(C#N)cnc3ccc(F)cc23)CC1	651	48	589	
COc1ccc(CNC(=O)C2CCN(c3c(C#N)cnc4ccc(F)cc34)CC2)cc1	664	60	617	
N#Cc1cnc2ccc(F)cc2c1N1CCC(C(=O)Nc2ccc(S(N)(=O)=O)cc2)CC1	248	63	229	fraction unbound [3]: 0.01; Kp uu at 25 min [4]: 0.1; efflux ratio [12]: 83; CLhep predicted [5]: 13 mL/min/kg; fraction unbound [6]: 0.064; fraction unbound [7]: 0.016; Kp at 25 min [8]: 0.16; CLhep predicted [9]: 34 mL/min/kg
Cc1ccc(OC2CCN(c3ncnc4ccc(F)cc34)CC2)cn1				fraction unbound [3]: 0.007; Kp uu at 25 min [4]: 0.74; CLhep predicted [5]: 20 mL/min/kg; Fu [13]: 0.013; fraction unbound [7]: 0.011; Kp at 25 min [8]: 1.16; CLhep predicted [9]: 67 mL/min/kg

Compound	EC50 ([1]; read-out: EC50) [nM]	Emax [2] [%]	EC50 ([1]; read-out: pEC50 (converted)) [nM]	also measured
Cc1ccc(OC2CCN(c3c(C#N)cnc4ccc(F)cc34)CC2)c(F)n1	5640	53	5370	
N#Cc1cnc2ccc(F)cc2c1N1CCC(C(=O)NCc2ccccc2)CC1		68 to 78	1230	CLhep predicted [5]: 17 mL/min/kg; fraction unbound [6]: 0.031; EC50 [14]: 2560 nM; fraction unbound [7]: 0.028; Emax [15]: 49%; CLhep predicted [9]: 61 mL/min/kg
N#Cc1cnc2ccc(F)cc2c1N1CCC(Oc2ccccc2)CC1	3260	81		
Cc1ccc(OC2CCN(c3c(C#N)cnc4c(F)cc(F)cc34)CC2)cn1	223	93	209	
N#Cc1cnc2ccc(F)cc2c1N1CCC(C(=O)Nc2ccncn2)CC1	940	59		
N#Cc1cnc2ccc(F)cc2c1N1CCC(C(=O)N2CCOCC2)CC1	6440	78		
N#Cc1cnc2ccc(F)cc2c1N1CCC(C(=O)Nc2cccnc2)CC1	619	68		
Cc1ccc(OC2CCN(c3c(C#N)cnc4ccc(Cl)cc34)CC2)cn1	905	72		
Cn1nccc1NC(=O)C1CCN(c2c(C#N)cnc3ccc(F)cc23)CC1	1760	81	1660	
N#Cc1cnc2ccc(F)cc2c1N1CCC(Oc2ccc(Cl)nc2)CC1	577	80	562	
Cc1ccc(OC2CCN(c3ccnc4ccc(F)cc34)CC2)cn1	2210	62	2140	
Cc1ccc(OC2CCN(c3c(C#N)cnc4ccc(F)cc34)CC2)cn1	197	79		fraction unbound [3]: 0.014; Kp uu at 25 min [4]: 2.37 to 2.4; clearance [16]: 41 mL/min/kg; efflux ratio [12]: 1.1; half-life [17]: 1.7 h; CLhep predicted [5]: 15 mL/min/kg; fraction unbound [6]: 0.024; half-life [18]: 1.6 h; EC50 [14]: 437 nM; clearance [19]: 36 mL/min/kg; fraction unbound [7]: 0.031; Kp at 25 min [8]: 5.25 to 5.3; Vd [20]: 4 L/kg; Fu [21]: 0.045; Emax [15]: 74%; Papp [22]: 28 ×10⁻⁶ cm/s; CLhep predicted [9]: 52 mL/min/kg; Vd [23]: 3.2 L/kg
N#Cc1cnc2ccc(F)cc2c1N1CCC(C(=O)N2CCc3ccccc3C2)CC1	652	81		
N#Cc1ccc(OC2CCN(c3c(C#N)cnc4ccc(F)cc34)CC2)cn1	> 10000	49		
N#Cc1cnc2ccc(F)cc2c1N1CCC(C(=O)N2CCSCC2)CC1	1410	88		
